Test results published in patent publication US9376424B2, “Methods for treating post traumatic stress disorder” (AZEVAN PHARMACEUTICALS, INC., priority 2010, dated 2016).

Target: T1, human V1a receptor (Homo sapiens, UniProt P37288)
T1 construct: host or cells: CHO cells
Assay: Inhibition of phosphatidylinositol turnover (V1a)
Type: cell-based
Excerpt: Inhibition of phosphatidylinositol turnover (V1a). The physiological effects of vasopressin are mediated through specific G-protein coupled receptors. The vasopressin V1a receptor is coupled to the Gq/G11 family of G proteins and mediates phosphatidylinositol turnover. The agonist or antagonist character of the compounds of the invention may be determined by their ability to inhibit vasopressin-mediated turnover of phosphatidylinositol by the procedure described in the following paragraphs.
Cell culture and labeling of cells. Three days prior to the assay, near-confluent cultures of hV1a or hV1b cells were dissociated and seeded in 6-well tissue culture plates, about 100 wells being seeded from each 75 cm^2 flask (equivalent to 12:1 split ratio). Each well contained 1 mL of growth medium with 2 μCi of [^3H]myo-inositol (American Radiolabeled Chemicals, St. Louis, Mo., USA).
Incubations (V1a and V1b). All assays were in triplicate except for basal and 10 nM AVP (both n=6). AVP ((arginine vasopressin), Peninsula Labs, Belmont, Calif., USA (#8103)) was dissolved in 0.1N acetic acid. Test agents were dissolved in DMSO and diluted in DMSO to 200 times the final test concentration. […] The order of incubations was randomized. Incubations were initiated by removing the prelabeling medium, washing the monolayer once with 1 mL of 0.9% NaCl, and transferring the contents of the assay tubes to corresponding wells. The plates were incubated for 1 hour at 37° C. Incubations were terminated by removing the incubation medium and adding 500 μL of ice cold 5% (w/v) trichloroacetic acid and allowing the wells to stand for 15 min.
Measurement of [^3H]inositol phosphates (V1a and V1b). BioRad Poly-Prep Econo-Columns were packed with 0.3 mL of AG 1×−8 100-200 formate form resin. Resin was mixed 1:1 with water and 0.6 mL added to each column. Columns were then washed with 10 mL water. Scintillation vials (20 mL) were placed under each column. For each well, the contents were transferred to a minicolumn, after which the well was washed with 0.5 mL distilled water, which was also added to the minicolumn. The columns were then washed twice with 5 mL of 5 mM myo-inositol to elute free inositol. Aliquots (1 mL) were transferred to 20 mL scintillation vials and 10 mL of Beckman Ready Protein Plus added. After the myo-inositol wash was complete, empty scintillation vials were placed under the columns, and [^3H]inositol phosphates were eluted with three additions of 1 mL 0.5 M ammonium formate containing 0.1 N formic acid. Elution conditions were optimized to recover inositol mono-, bis-, and trisphosphates, without eluting the more metabolically inert tetrakis-, pentakis-, and hexakis-phosphates. To each sample was added 10 mL of a high salt capacity scintillation fluid such as Tru-Count High Salt Capacity or Packard Hionic-Fluor. Inositol lipids were measured by adding 1 mL of 2% sodium dodecyl sulfate (SDS) to each well, allowing the wells to stand for at least 30 min., and transferring the solution to 20 mL scintillation vials, to which 10 mL Beckman Ready Protein Plus scintillation fluid was then added. Samples were counted in a Beckman LS 3801 liquid scintillation counter for 10 min. Total inositol incorporation for each well was calculated as the sum of free inositol, inositol phosphates, and inositol lipids.
Data analysis (V1a and V1b): concentration-inhibition experiments. Concentration-response curves for AVP and concentration-inhibition curves for test agents versus 10 nM AVP were analyzed by nonlinear least-squares curve-fitting to a 4-parameter logistic function. Parameters for basal and maximal inositol phosphates, EC50 or IC50, and Hill coefficient were varied to achieve the best fit. The curve-fitting was weighted under the assumption that the standard deviation was proportional to dpm of radioactivity. Full concentration-response curves for AVP were run in each experiment. […]

T1 sequence (P37288 whole entry): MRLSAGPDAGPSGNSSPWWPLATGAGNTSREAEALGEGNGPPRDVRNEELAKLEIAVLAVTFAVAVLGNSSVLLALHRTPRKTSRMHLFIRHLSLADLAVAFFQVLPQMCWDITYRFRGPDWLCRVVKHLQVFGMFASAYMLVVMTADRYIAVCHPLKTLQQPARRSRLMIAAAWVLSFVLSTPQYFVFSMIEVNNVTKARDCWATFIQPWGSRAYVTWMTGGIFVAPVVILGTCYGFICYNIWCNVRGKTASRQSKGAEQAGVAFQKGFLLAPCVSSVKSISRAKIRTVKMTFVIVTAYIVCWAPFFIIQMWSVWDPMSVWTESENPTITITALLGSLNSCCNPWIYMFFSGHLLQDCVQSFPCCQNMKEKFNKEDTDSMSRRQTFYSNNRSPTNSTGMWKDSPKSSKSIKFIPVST

**Q.** Which results are given for `CN(Cc1cccc(C(F)(F)F)c1)C(=O)[C@@H](CC(=O)N1CCC(N2CCCCC2)CC1)N1C(=O)[C@@H](N2C(=O)OC[C@@H]2c2ccccc2)[C@H]1C=Cc1ccccc1` [Example 225, 2(R)-[[4-(Piperidinyl)piperidinyl]carbonylmethyl]-2-[3(S)-(4(S)-phenyloxazolidin-2-on-3-yl)-4(R)-(2-styryl)azetidin-2-on-1-yl]acetic acid N-methyl-N-(3-trifluoromethylbenzyl)amide]?
**A.** Ki (Cheng-Prusoff from IC50, hV1a cells, read-out: Ki, suppression of the action of AVP (inositol phosphates)): 0.05 nM; IC50 (versus 10 nM AVP, hV1a cells, read-out: IC50, suppression of the action of AVP (inositol phosphates)): 2.68 nM
